Tested on: human mononuclear cells
Assay: Production of lipoxin A4 in human mononuclear cells in vitro stimulated with PMA/A23187 plus DHA/EPA, quantified by LC-MS
Assay type: cell-based
Settings: coriander oil 0.25 mg/ml, taurine 3.1 mg/ml; 30 minutes pre-incubation, then 2 hours of stimulation with phorbol myristate 0.05 μM, calcium ionophore 1 μM, DHA and EPA 1 μg/mL; cell supernatant
Method: Mononuclear blood cells are cultured under 5% CO2 and at 37° C. in a serum-free medium for macrophages (SFM Macrophage; Invitrogen 12065074) for 24 hours. […] The inflammatory response was then triggered in the presence of phorbol myristate (0.05 μM) and calcium ionophore (1μM) and a lipid substrate mixture composed of docosahexaenoic acid (DHA−1 μg/mL) and eicosapentaenoic acid (EPA-1μg/mL). The supernatants were then collected after 2 hours of stimulation and frozen at −80° C. before preparation for analysis by mass spectrometry. Experimental triplicates (three wells) were prepared per experimental condition. Into each culture plate was placed a control corresponding to cells stimulated with the PMA/A23187 mixture and/or with addition of the equimolar mixture of fatty acids. The frozen supernatants were concentrated by solid-phase extraction (SPE) and taken up in methanol before spectrometric analysis. The analytical method used consists in separating the various analytes by high-pressure liquid chromatography as a function of their retention time and in quantifying them by mass spectrometry. The analyses were performed using an LC 1290 Infinity chain (Agilent Technologies) coupled to a 6460 Triple Quad LC/MS mass spectrometer (Agilent Technologies) equipped with an electrospray ionization source (Jet stream technology) operating in negative mode. […]

NCCS(=O)(=O)O [Taurine]
Level of lipoxin A4 production (% modulation relative to the control): +38%

— patent US20160074297A1, “COMBINATION OF PETROSELINIC ACID AND TAURINE FOR ORAL ADMINISTRATION FOR HAIR AGING CONTROL” (NUTRICOS TECHNOLOGIES, priority 2013, published 2016)
